Laboratory results reported in the supplement of paper PMC10307832.

Tests used:
Test in all cases: relative viability (nuclei count vs DMSO), 5 days (fraction); higher = more cells survive
ABC-1 = test system: ABC-1
How it was run: (§1)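 Values are medians from duplicate plates. Each reflects relative viability, defined as the nuclei count of treated wells over that of vehicle wells. Lung cancer cell lines in 1536-well plates were pin-tool dosed one day after seeding with one drug alone or with a fixed anchor-drug dose plus five library-drug doses (not always all listed) in √10 steps, then fixed, stained and imaged at 4× after 5 days.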

NCI-H522 = test system: NCI-H522
How it was run: as §1

NCI-H650 = test system: NCI-H650
How it was run: as §1

NCI-H1792 = test system: NCI-H1792
How it was run: as §1

SW 1573 = test system: SW 1573
How it was run: as §1

NCI-H1648 = test system: NCI-H1648
How it was run: as §1

EPLC-272H = test system: EPLC-272H
How it was run: as §1

HCC-44 = test system: HCC-44
How it was run: as §1

RERF-LC-KJ = test system: RERF-LC-KJ
How it was run: as §1

NCI-H647 = test system: NCI-H647
How it was run: as §1

COR-L 105 = test system: COR-L 105
How it was run: as §1

SK-MES-1 = test system: SK-MES-1
How it was run: as §1

HCC-366 = test system: HCC-366
How it was run: as §1

NCI-H661 = test system: NCI-H661
How it was run: as §1

LCLC-97TM1 = test system: LCLC-97TM1
How it was run: as §1

HCC-827 = test system: HCC-827
How it was run: as §1

NCI-H1395 = test system: NCI-H1395
How it was run: as §1

NCI-H358 = test system: NCI-H358
How it was run: as §1

NCI-H2009 = test system: NCI-H2009
How it was run: as §1

HCC-78 = test system: HCC-78
How it was run: as §1

HCC-15 = test system: HCC-15
How it was run: as §1

NCI-H1993 = test system: NCI-H1993
How it was run: as §1

NCI-H596 = test system: NCI-H596
How it was run: as §1

## C=C1C(=O)O[C@@H](CCCCCCCC)[C@@H]1C(=O)O [C-75] + Nc1ncn([C@H]2C[C@H](O)[C@@H](CO)O2)c(=O)n1 [Decitabine] (partner 2 µM)
ABC-1; first compound 0.08 µM
  relative viability: 1.03
ABC-1; first compound 0.253 µM
  relative viability: 1.18
ABC-1; first compound 0.8 µM
  relative viability: 1.08
ABC-1; first compound 2.53 µM
  relative viability: 0.72
ABC-1; first compound 8 µM
  relative viability: 0.81
NCI-H522; first compound 0.08 µM
  relative viability: 0.741
NCI-H522; first compound 0.253 µM
  relative viability: 0.693
NCI-H522; first compound 0.8 µM
  relative viability: 0.763
NCI-H522; first compound 2.53 µM
  relative viability: 0.555
NCI-H522; first compound 8 µM
  relative viability: 0.599
NCI-H650; first compound 0.08 µM
  relative viability: 0.315
NCI-H650; first compound 0.253 µM
  relative viability: 0.35
NCI-H650; first compound 0.8 µM
  relative viability: 0.329
NCI-H650; first compound 2.53 µM
  relative viability: 0.294
NCI-H650; first compound 8 µM
  relative viability: 0.403
NCI-H1792; first compound 0.08 µM
  relative viability: 0.516
NCI-H1792; first compound 0.253 µM
  relative viability: 0.554
NCI-H1792; first compound 0.8 µM
  relative viability: 0.509
NCI-H1792; first compound 2.53 µM
  relative viability: 0.494
NCI-H1792; first compound 8 µM
  relative viability: 0.475
SW 1573; first compound 0.08 µM
  relative viability: 0.464
SW 1573; first compound 0.253 µM
  relative viability: 0.51
SW 1573; first compound 0.8 µM
  relative viability: 0.434
SW 1573; first compound 2.53 µM
  relative viability: 0.385
SW 1573; first compound 8 µM
  relative viability: 0.351
NCI-H1648; first compound 0.08 µM
  relative viability: 0.487
NCI-H1648; first compound 0.253 µM
  relative viability: 0.671
NCI-H1648; first compound 0.8 µM
  relative viability: 0.473
NCI-H1648; first compound 8 µM
  relative viability: 0.492
EPLC-272H; first compound 0.08 µM
  relative viability: 0.338
EPLC-272H; first compound 0.253 µM
  relative viability: 0.436
EPLC-272H; first compound 0.8 µM
  relative viability: 0.334
EPLC-272H; first compound 2.53 µM
  relative viability: 0.33
EPLC-272H; first compound 8 µM
  relative viability: 0.349
HCC-44; first compound 0.08 µM
  relative viability: 1.02
HCC-44; first compound 0.253 µM
  relative viability: 0.922
HCC-44; first compound 0.8 µM
  relative viability: 0.946
HCC-44; first compound 2.53 µM
  relative viability: 0.8
HCC-44; first compound 8 µM
  relative viability: 0.903
RERF-LC-KJ; first compound 0.08 µM
  relative viability: 0.682
RERF-LC-KJ; first compound 0.253 µM
  relative viability: 0.848
RERF-LC-KJ; first compound 0.8 µM
  relative viability: 0.613
RERF-LC-KJ; first compound 2.53 µM
  relative viability: 0.568
RERF-LC-KJ; first compound 8 µM
  relative viability: 0.605
NCI-H647; first compound 0.08 µM
  relative viability: 0.332
NCI-H647; first compound 0.253 µM
  relative viability: 0.422
NCI-H647; first compound 0.8 µM
  relative viability: 0.365
NCI-H647; first compound 2.53 µM
  relative viability: 0.306
NCI-H647; first compound 8 µM
  relative viability: 0.234
COR-L 105; first compound 0.08 µM
  relative viability: 0.7
COR-L 105; first compound 0.253 µM
  relative viability: 0.685
COR-L 105; first compound 0.8 µM
  relative viability: 0.582
COR-L 105; first compound 2.53 µM
  relative viability: 0.477
COR-L 105; first compound 8 µM
  relative viability: 0.606
SK-MES-1; first compound 0.08 µM
  relative viability: 0.439
SK-MES-1; first compound 0.253 µM
  relative viability: 0.367
SK-MES-1; first compound 0.8 µM
  relative viability: 0.368
SK-MES-1; first compound 2.53 µM
  relative viability: 0.412
SK-MES-1; first compound 8 µM
  relative viability: 0.311
HCC-366; first compound 0.08 µM
  relative viability: 0.357
HCC-366; first compound 0.253 µM
  relative viability: 0.361
HCC-366; first compound 0.8 µM
  relative viability: 0.385
HCC-366; first compound 2.53 µM
  relative viability: 0.344
HCC-366; first compound 8 µM
  relative viability: 0.289
NCI-H661; first compound 0.08 µM
  relative viability: 0.545
NCI-H661; first compound 0.253 µM
  relative viability: 0.54
NCI-H661; first compound 0.8 µM
  relative viability: 0.519
NCI-H661; first compound 2.53 µM
  relative viability: 0.41
NCI-H661; first compound 8 µM
  relative viability: 0.448
LCLC-97TM1; first compound 0.08 µM
  relative viability: 0.197
LCLC-97TM1; first compound 0.253 µM
  relative viability: 0.254
LCLC-97TM1; first compound 0.8 µM
  relative viability: 0.206
LCLC-97TM1; first compound 2.53 µM
  relative viability: 0.215
LCLC-97TM1; first compound 8 µM
  relative viability: 0.233
HCC-827; first compound 0.253 µM
  relative viability: 0.333
HCC-827; first compound 0.8 µM
  relative viability: 0.277
HCC-827; first compound 8 µM
  relative viability: 0.262
NCI-H1395; first compound 0.08 µM
  relative viability: 0.74
NCI-H1395; first compound 0.253 µM
  relative viability: 0.674
NCI-H1395; first compound 2.53 µM
  relative viability: 0.667
NCI-H1395; first compound 8 µM
  relative viability: 0.69
NCI-H358; first compound 0.08 µM
  relative viability: 0.212
NCI-H358; first compound 0.253 µM
  relative viability: 0.211
NCI-H358; first compound 0.8 µM
  relative viability: 0.203
NCI-H358; first compound 8 µM
  relative viability: 0.18
NCI-H2009; first compound 0.08 µM
  relative viability: 0.37
NCI-H2009; first compound 0.253 µM
  relative viability: 0.393
NCI-H2009; first compound 0.8 µM
  relative viability: 0.327
NCI-H2009; first compound 2.53 µM
  relative viability: 0.314
NCI-H2009; first compound 8 µM
  relative viability: 0.338
HCC-78; first compound 0.08 µM
  relative viability: 0.693
HCC-78; first compound 0.253 µM
  relative viability: 0.676
HCC-78; first compound 0.8 µM
  relative viability: 0.72
HCC-78; first compound 8 µM
  relative viability: 0.667
HCC-15; first compound 0.08 µM
  relative viability: 0.691
HCC-15; first compound 0.253 µM
  relative viability: 0.636
HCC-15; first compound 0.8 µM
  relative viability: 0.551
HCC-15; first compound 2.53 µM
  relative viability: 0.543
HCC-15; first compound 8 µM
  relative viability: 0.626
NCI-H1993; first compound 0.08 µM
  relative viability: 0.695
NCI-H1993; first compound 0.253 µM
  relative viability: 0.685
NCI-H1993; first compound 0.8 µM
  relative viability: 0.605
NCI-H1993; first compound 2.53 µM
  relative viability: 0.549
NCI-H1993; first compound 8 µM
  relative viability: 0.571
NCI-H596; first compound 0.08 µM
  relative viability: 0.943
NCI-H596; first compound 0.253 µM
  relative viability: 1.16
NCI-H596; first compound 0.8 µM
  relative viability: 0.953
NCI-H596; first compound 2.53 µM
  relative viability: 1.07
NCI-H596; first compound 8 µM
  relative viability: 0.96
